# Publication PMC8911640, “Synthesis and Structure–Activity Relationship of Thioacetamide-Triazoles against Escherichia coli” (Molecules, 2022)
# Values joined by “and” are separate entries in the source; they are usually repeats but may differ in a detail not shown here. Identical values can stand only once. Like-named read-outs stand apart in the source and are kept apart here.
# How the values were obtained:
# E. coli K12 MG1655 = assay: MIC testing by CLSI broth microdilution in M9-based minimal media ATCC 2511, with or without methionine; type: cell-based, Escherichia coli; conditions: for MIC90: Escherichia coli; for antibacterial activity against E. coli in words: E. coli K12
# Procedure: To explore the SAR around the right hand aryl portion of the TAT series (Table 1), compounds were evaluated for their in vitro antibacterial activity against E. coli in the M9-based minimal media ATCC 2511. […]. An MIC shift between the two medias was used to indicate that antibacterial activity of the compounds remained on target, and this was happily seen with all of the most MIC active compounds generated in this study. Within the first series of compounds in Table 1, modifications to the phenyl ring are generally well tolerated. MICs remain within 2-fold of the initial hit 1 for the fluoro- and cyano- substituted compounds 1–8. […]. Incorporating the electron-donating group -OMe and sterically bulky iodine group in both ortho and para position, 17–20, maintained activity, whereas the introduction of the strong electron-withdrawing -CF3 group, 21 and 22, led to poorer MIC activity. […] The phenyl ring isosteres—thiazoles 25 and 26—both retained good MIC activity. Adding a methyl branch to the thioacetamide linker 28 and 29 led to a striking loss of activity. Replacement of the aryl group with the aliphatic groups cyclohexyl 31, cyclopentyl 32, tert-butyl groups 33 all reduced activity.
# MICs were determined following CLSI broth microdilution susceptibility M100 guidelines. Compound solutions were prepared in DMSO and serially diluted 1:2 in 100 μL/well in 96 well round-bottom plates. E. coli K12 MG1655 was acquired from ATCC and strictly maintained in the M9-based media ATCC 2511. ATCC 2511 was also used for all further cultivation and MIC testing. Bacteria were grown from a single colony to a mid-log OD600 and frozen in 0.5 mL aliquots. These aliquots were used to directly inoculate the assay plates by diluting to an OD600 of 0.001 and plating 100 μL per well, allowing for ~10^5 CFU to be added to each well.
# Solubility = type: physicochemical; conditions: pH 7.4 (Table S1); for solubility: read-out: Solubility Avg. Sol
# Procedure: The in vitro ADME values (solubility, mouse plasma stability, human plasma stability, mouse metabolic stability, and human metabolic stability) were determined as previously reported.
# E. coli K12 = assay: Whole cell accumulation in E. coli K12 (LC-MS/MS); parameters: dose or concentration left out as unconfirmed; conditions: 10 min, 37 °C; average of three biological replicates
# Procedure: Drug uptake in whole cell E. coli K12, was performed following a modified protocol adapted from previously published studies [17, 25, 26, 27]. […] After incubation, 800 mL of antibiotic-exposed cells were spun (3 min, 13,000× g) through 700 mL of a 9:1 mix of AR20 and high temperature silicon oils (cooled to −80°C). The supernatant of silicone oil and free compound in PBS was carefully removed from pellet. Intracellular concentration of antibiotics within the bacterial cells was then determined.
# For lysis, cells were resuspended in 200 mL of water and lysed by three freeze-thaw cycles of 3 min each in liquid nitrogen and in a 60 °C water bath. Lysed cells were pelleted and 150 mL of aqueous extract was transferred to a clean 1.5 mL microcentrifuge tube. Cell debris was resuspended in the remaining 50 mL of water and then extracted with 100 mL of methanol. Cells were again centrifuged, 100 mL of the methanol extract were removed and combined with the water supernatant. The extracts were allowed to rest at room temperature for 1 h before being centrifuged for 10 min at 20,000× g. Finally, extracts were filtered through a 0.22mm spin column to remove any remaining cellular debris.
# Samples were analyzed with a Waters Acquity M Class series UPLC system and Xevo G2 QTOF tandem MS/MS with Zspray. Using a Phenomenex Kinetex 2.6 μm XB-C18, 100 Å (300 μm × 150 mm) column with solvent A, 0.1% formic acid in water, and solvent B, 0.1% formic acid in acetonitrile, 250 nL of extract were separated. […] High-resolution spectra were calibrated by co-infusion of 2 ng/mL leucine enkephalin lockspray (Waters). Data were quantified using Waters MassLynx software where the AUC was determined by integrating the daughter peak of the parent ion. Concentrations of the unknown compounds were determined by the linear fit of the standard curve. Concentrations were normalized to the culture density, determined via titers, to 10^10 CFU and are reported as the average of three biological replicates.
# [1] = No Supplement (N.S.), ATCC 2511 media, 16 h, 37 °C, read-out: E. coli K12 MIC90
# [2] = MG1655, read-out: E. coli K12 MIC90
# [3] = No Supplement (N.S.), ATCC 2511 media, 16 h, 37 °C
# [4] = 16 h, read-out: E. coli K12 MIC90
Compound,MIC90 (E. coli K12 MG1655; [1]) [µg/mL],melting point [°C],MIC90 (E. coli K12 MG1655; [2]) [µg/mL],further results
O=C(CSc1cnn[nH]1)NCc1ccc(C(F)(F)F)cc1 [Compound 44],50,133 to 135,–,–
O=C(CSc1nncs1)Nc1ccccc1F [Compound 66],> 200,123 to 125,–,antibacterial activity against E. coli in words (E. coli K12 MG1655): inactive
O=C(CSc1c[nH]nn1)Nc1ccccc1C(F)(F)F [Compound 21],25,83 to 85,–,–
"O=C(N[C@H](CO)[C@H](O)c1ccc([N+](=O)[O-])cc1)C(Cl)Cl [Chloramphenicol, reference compound]",1.6,–,–,–
O=C(CSc1c[nH]nn1)NC1CCCCC1 [Compound 31],25,118 to 119,–,–
"NC(=O)N1c2ccccc2C=Cc2ccccc21 [Carbamazepine, reference compound]",–,–,–,"%Soluble (Solubility): 85.1%; solubility (Solubility; pH 7.4, aqueous buffer): 20.1 µg/mL and 85.1 µM"
Cn1cc(SCC(=O)Nc2ccccc2F)nn1 [Compound 71],> 200,–,–,antibacterial activity against E. coli in words (E. coli K12 MG1655): inactive
"COc1ccc(NC(=O)CSc2c[nH]nn2)cc1 [Compound 18, 2-[(1H-1,2,3-triazol-4-yl)sulfanyl]-N-(4-methoxyphenyl)acetamide]",3.1,130 to 131,12.5,–
"O=C(CSc1c[nH]nn1)Nc1cccc(F)c1 [Compound 7, 2-[(1H-1,2,3-triazol-4-yl)sulfanyl]-N-(3-fluorophenyl)acetamide]",1.6,–,12.5,E. coli K12 MIC90 (E. coli K12 MG1655; [3]): ≤ 3.1 µg/mL
O=C(CSc1cnn[nH]1)NCc1ccc(OC(F)(F)F)cc1 [Compound 45],100,131 to 133,–,–
"COc1cc(Cc2cnc(N)nc2N)cc(OC)c1OC [Trimethoprim, reference compound]",–,–,–,MIC90 (E. coli K12 MG1655; [4]): 0.98 µg/mL
CCN(C(=O)CSc1c[nH]nn1)c1ccccc1F [Compound 24],12.5,82 to 83,25,–
CN1CCN(c2ccc(NC(=O)CSc3cnn[nH]3)cc2)CC1 [Compound 56],> 200,–,–,Whole Cell Accumulation in E. coli (E. coli K12): 4.7 ± 2 μM/10^10 CFU
O=C(CSc1cnn[nH]1)NCc1ccccn1 [Compound 40],12.5,–,> 50,–
"N#Cc1ccc(NC(=O)CSc2c[nH]nn2)cn1 [Compound 15, 2-[(1H-1,2,3-triazol-4-yl)sulfanyl]-N-(6-cyanopyridin-3-yl)acetamide]",6.3,198 to 199,50,–
O=C(CSc1c[nH]nn1)Nc1ccncc1 [Compound 10],12.5,187 to 188,50,"fold change (loss) in MIC activity relative to initial hit 1 (E. coli K12 MG1655; E. coli K12, no supplement): 8 fold"
Cc1nnc(SCC(=O)Nc2ccccc2)s1 [Compound 64],> 200,153 to 154,–,antibacterial activity against E. coli in words (E. coli K12 MG1655): inactive
"COc1ccccc1NC(=O)CSc1c[nH]nn1 [Compound 17, 2-[(1H-1,2,3-triazol-4-yl)sulfanyl]-N-(2-methoxyphenyl)acetamide]",6.3,99 to 100,–,–
Cn1nnnc1SCC(=O)Nc1ccccc1F [Compound 65],> 200,137 to 139,–,antibacterial activity against E. coli in words (E. coli K12 MG1655): inactive
"O=C(CSc1c[nH]nn1)Nc1ccc(I)cc1 [Compound 20, 2-[(1H-1,2,3-triazol-4-yl)sulfanyl]-N-(4-iodophenyl)acetamide]",6.3,166 to 168,25,–
Cn1nncc1SCC(=O)Nc1ccccc1 [Compound 68],> 200,–,–,antibacterial activity against E. coli in words (E. coli K12 MG1655): inactive
N[C@H]1CCN(c2ccc(NC(=O)CSc3cnn[nH]3)cc2)C1 [Compound 50],> 200,–,–,Whole Cell Accumulation in E. coli (E. coli K12): 9.0 ± 2 μM/10^10 CFU
"O=C(CSc1c[nH]nn1)Nc1ccc(F)cn1 [Compound 14, 2-[(1H-1,2,3-triazol-4-yl)sulfanyl]-N-(5-fluoropyridin-2-yl)acetamide]",3.1,151 to 153,12.5,–
O=C(CSc1c[nH]nn1)Nc1ncccn1 [Compound 27],25,136 to 138,–,–

Compound,MIC90 (E. coli K12 MG1655; [1]) [µg/mL],melting point [°C],MIC90 (E. coli K12 MG1655; [2]) [µg/mL],further results
"O=C(CSc1cnn[nH]1)NCc1ccccc1F [Compound 38, 2-[(1H-1,2,3-triazol-5-yl)sulfanyl]-N-(2-fluorobenzyl)acetamide]",3.1,–,–,–
"N#Cc1cccc(NC(=O)CSc2c[nH]nn2)c1 [Compound 8, 2-[(1H-1,2,3-triazol-4-yl)sulfanyl]-N-(3-cyanophenyl)acetamide]",3.1,158 to 159,12.5,–
N#Cc1cccnc1NC(=O)CSc1c[nH]nn1 [Compound 12],25,113 to 114,–,–
"Cc1cc(NS(=O)(=O)c2ccc(N)cc2)no1 [Sulfamethoxazole, reference compound]",–,–,–,MIC90 (E. coli K12 MG1655; [4]): 0.98 µg/mL
"3-[(1H-1,2,3-triazol-4-yl)sulfanyl]-N-(2-fluorophenyl)propenamide [Compound 30]",–,–,–,E. coli K12 MIC90 (E. coli K12 MG1655; +20 μg/mL Methionine): 25 µg/mL; E. coli K12 MIC90 (E. coli K12 MG1655; [3]): 6.3 µg/mL
O=C(CSc1cnn[nH]1)Nc1ccccc1 [Compound 11],1.6,–,6.3,–
O=C(CSc1cnn[nH]1)NCc1cccc(F)c1 [Compound 41],6.3,85 to 86,–,–
O=C(CSc1c[nH]nn1)NC1CCCC1 [Compound 33],12.5,108 to 109,25,–
O=C(CSc1cnn[nH]1)Nc1ccc(N2C[C@@H]3NCCO[C@H]3C2)cc1 [Compound 53],> 200,–,–,Whole Cell Accumulation in E. coli (E. coli K12): 19 ± 1 μM/10^10 CFU
Cn1nnnc1SCC(=O)Nc1ccccc1 [Compound 62],> 200,–,–,antibacterial activity against E. coli in words (E. coli K12 MG1655): inactive
"CCCSc1ccc2nc(NC(=O)OC)[nH]c2c1 [Albendazole, reference compound]",–,–,–,solubility (Solubility; aqueous buffer): 5.33 µg/mL and 20.1 µM; %Soluble (Solubility): 20.1%
"O=C(CSc1c[nH]nn1)Nc1ncccc1F [Compound 13, 2-[(1H-1,2,3-triazol-4-yl)sulfanyl]-N-(3-fluoropyridin-2-yl)acetamide]",6.3,99 to 100,25,–
"O=C(CSc1c[nH]nn1)Nc1ccccc1I [Compound 19, 2-[(1H-1,2,3-triazol-4-yl)sulfanyl]-N-(2-iodophenyl)acetamide]",3.1,122 to 124,–,–
O=C(CSc1c[nH]nn1)Nc1ccc(C(F)(F)F)cc1 [Compound 22],25,163 to 165,–,–
Cc1nnc(SCC(=O)Nc2ccccc2F)s1 [Compound 67],> 200,111 to 113,–,antibacterial activity against E. coli in words (E. coli K12 MG1655): inactive
O=C(CSc1nncs1)Nc1ccccc1 [Compound 63],> 200,109 to 110,–,antibacterial activity against E. coli in words (E. coli K12 MG1655): inactive
CN(Cc1ccccc1F)C(=O)CSc1cnn[nH]1 [Compound 46],50,–,–,–
"CCOC(=O)c1cnc(NC(=O)CSc2c[nH]nn2)s1 [Compound 26, Ethyl 2-{2-[(1H-1,2,3-triazol-4-yl)sulfanyl]acetamido}thiazole-5-carboxylate]",3.1,172 to 174,12.5,–
O=C(CSc1cnn[nH]1)NCc1cc(F)cc(C(F)(F)F)c1 [Compound 42],50,82 to 84,–,–
"O=C(CSc1cnn[nH]1)NCc1ccc(F)cc1 [Compound 39, 2-[(1H-1,2,3-triazol-5-yl)sulfanyl]-N-(4-fluorobenzyl)acetamide]",6.3,122 to 124,50,–
Cn1cc(SCC(=O)Nc2ccccc2)nn1 [Compound 69],> 200,–,–,antibacterial activity against E. coli in words (E. coli K12 MG1655): inactive
CN(C(=O)CSc1c[nH]nn1)c1ccc(F)cc1 [Compound 23],25,95 to 96,–,–
Cn1nncc1SCC(=O)Nc1ccccc1F [Compound 70],> 200,–,–,antibacterial activity against E. coli in words (E. coli K12 MG1655): inactive
"N#Cc1ccc(NC(=O)CSc2c[nH]nn2)nc1 [Compound 16, 2-[(1H-1,2,3-triazol-4-yl)sulfanyl]-N-(5-cyanopyridin-2-yl)acetamide]",3.1,118 to 119,6.3,–
